These compounds were tested against T1, human OX2R (Homo sapiens, UniProt O43614) (assay: Measurement of OX2R agonist activity (intracellular calcium concentration change, Fluo4-AM, FDSS 7000)). Conditions: compound concentration 10 μM; human OX2R-expressing CHO-K1 cells; 1 μM human orexin A peptide = 100%, medium alone = 0%.
T1 construct: expressed in transfected cells
T1 sequence (O43614 1-444): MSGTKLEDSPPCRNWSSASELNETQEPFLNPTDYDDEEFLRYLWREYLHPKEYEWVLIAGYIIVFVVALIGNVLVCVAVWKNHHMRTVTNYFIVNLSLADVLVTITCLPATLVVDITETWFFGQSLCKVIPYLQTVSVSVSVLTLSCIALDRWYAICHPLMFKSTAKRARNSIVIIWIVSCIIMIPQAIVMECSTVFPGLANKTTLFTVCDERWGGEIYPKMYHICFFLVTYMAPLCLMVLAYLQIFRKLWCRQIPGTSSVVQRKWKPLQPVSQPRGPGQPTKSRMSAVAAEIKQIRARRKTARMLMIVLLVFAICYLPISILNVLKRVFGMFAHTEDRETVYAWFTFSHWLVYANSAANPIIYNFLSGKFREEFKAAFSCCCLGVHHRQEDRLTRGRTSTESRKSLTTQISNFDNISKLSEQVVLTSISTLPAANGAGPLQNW
Assay type: cell-based
Excerpt: The following abbreviations in the description, the figures and the tables have the following meanings, respectively. • AZADOL (registered trademark): 2-Hydroxy-2-azaadamantane • Boc2O: di-tert-butyl dicarbonate • DIPEA: N,N-diisopropylethylamine • DCM: dichloromethane • DMAP: 4-dimethylaminopyridine • DMF: N,N-dimethylformamide • DMSO: dimethylsulfoxide • Deoxo-Fluor: bis(2-methoxyethyl)-aminosulfur trifluoride • HATU: O-(7-azabenzotriazol-1-yl)-N,N,N′,N′-tetramethyluronium hexafluorophosphate • LDA: lithium diisopropylamide • MeCN: acetonitrile • Me4tBuXPhos: 2-di-tert-butylphosphino-3,4,5,6-tetramethyl-2′,4′,6′-triisopropyl-1,1′-biphenyl • MTBE: methyl tert-butyl ether • NMP: N-methylpyrrolidone • PdCl2(PPh3)2: dichlorobis(triphenylphosphine)palladium(II) • Pd(dba)2: bis(dibenzylideneacetone)palladium(0) • Pd2(dba)3: tris(dibenzylideneacetone)dipalladium(0) • Pd(dppf)Cl2: [1,1′-bis(diphenylphosphino)ferrocene]dichloropalladium(II) • Pd(PPh3)4: tetrakis(triphenylphosphine)palladium(0) • TEA: triethylamine • TFA: trifluoroacetic acid • THF: tetrahydrofuran • Xphos: 2-dicyclohexylphosphino-2′,4′,6′-triisopropylbiphenyl • Xphos Pd G3: (2-dicyclohexylphosphino-2′,4′,6′-triisopropyl-1,1′-biphenyl)[2-(2′-amino-1,1′-biphenyl)]palladium(II) methanesulfonic acid salt • 10% Pd/C: Palladium 10% on Carbon (wetted with ca. 55% water) • APS: aminopropylated silica gel • ODS: octadecyl-silylated silica gel • Method A: column chromatography with an aminopropylated silica gel column followed by a silica gel column • Chiral preparative column chromatography: chiral preparative column chromatography using YMC CHIRALART Cellulose-SB • Ref. No.: Reference Example Number • Str.: structural formula • Ex. No.: Example Number • Phys. data: physical data • ^1H-NMR: hydrogen nuclear magnetic resonance spectrum • CDCl3: chloroform-d1 • MS: mass spectrometry (The measured values in the tables were measured by electrospray ionization or multiionization using electrospray ionization-atmospheric pressure chemical ionization.) • Act.: activation rate of test substance at a compound concentration of 10 μM calculated by setting the fluorescence intensity obtained when human orexin A peptide was added at a concentration of 1 μM as 100% and the fluorescence intensity obtained when the medium alone was added as 0% • CHO: Chinese hamster ovary • HEPES: 2-[4-(2-hydroxyethyl)-1-piperazinyl]ethanesulfonic acid
A human OX2R sequence (Accession No. NM_001526.4) was inserted into the multiple cloning site of pcDNA3.4 (Life Technologies Japan Ltd.) to clone a plasmid vector for human OX2R expression. The plasmid was introduced into CHO-K1 cells using Lipofectamine 2000 (Life Technologies Japan Ltd.). Two days later, the transgenic CHO-K1 cells were passaged into 175T flasks and cultured selectively for 6 days. As a selection medium, Ham's F-12 Nutrient Mix (Life Technologies Japan Ltd.), containing Geneticin (registered trademark) (Life Technologies Japan Ltd.) at a final concentration of 1 mg/mL and inactivated fetal bovine serum (Biowest) at a final concentration of 10%, was used. After the selective culture, the cells were reseeded into 96-well plates, and a human OX2R-expressing cell line was obtained by limiting dilution.
The agonist effects of test substances on human OX2R were evaluated using the intracellular calcium concentration-change upon stimulation as an indicator. A day before measurement of the intracellular calcium concentrations, human OX2R-expressing cells suspended in a medium were seeded into 384-well plates at 5×10^3 cells/50 μL/well and cultured overnight in an incubator set at 37° C. and 5% CO2. After incubation, the medium was removed and replaced with 20 μL of a loading buffer. […]

| Structure (SMILES) | Act. (%): activation rate of test substance [%] |
| --- | --- |
| CON(C)C(=O)[C@@]1(Cc2cccc(-c3ncc(F)cn3)c2)C[C@H](F)[C@H](NS(=O)(=O)N(C)C)C1 (relative stereo) [Example 35, (1R*,3R*,4S*)-3-((N,N-Dimethylsulfamoyl)amino)-4-fluoro-1-(3-(5-fluoropyrimidin-2-yl)benzyl)-N-methoxy-N-methylcyclopentane-1-carboxamide] | 92 |
| CCS(=O)(=O)N[C@@H]1C[C@@](Cc2cccc(-c3ncc(F)cn3)c2)(C(=O)N(C)OC)C[C@@H]1F [Example 59, (1R,3R,4S)-3-(Ethylsulfonamido)-4-fluoro-1-(3-(5-fluoropyrimidin-2-yl)benzyl)-N-methoxy-N-methylcyclopentane-1-carboxamide] | 98 |
| CON(C)C(=O)[C@@]1(Cc2cccc(-c3ncc(Cl)cn3)c2)CC[C@H](NS(C)(=O)=O)C1 (relative stereo) [Example 15, (1R*,3S*)-1-(3-(5-Chloropyrimidin-2-yl)benzyl)-N-methoxy-N-methyl-3-(methylsulfonamido)cyclopentane-1-carboxamide] | 86 |
| CNS(=O)(=O)N[C@H]1CC[C@](Cc2cccc(-c3ccccc3)c2)(C(=O)N(C)OC)C1 (relative stereo) [Example 6, (1R*,3S*)-1-([1,1′-Biphenyl]-3-ylmethyl)-N-methoxy-N-methyl-3-((N-methylsulfamoyl)amino)cyclopentane-1-carboxamide] | 92 |
| CCN(C)C(=O)[C@@]1(Cc2cccc(-c3ncccn3)c2)CC[C@H](NS(C)(=O)=O)C1 (relative stereo) [Example 28, (1R*,3S*)—N-Ethyl-N-methyl-3-(methylsulfonamido)-1-(3-(pyrimidin-2-yl)benzyl)cyclopentane-1-carboxamide] | 92 |
| CON(C)C(=O)[C@@]1(Cc2ccc(F)c(-c3cc(F)cc(F)c3)c2)CC[C@H](NS(C)(=O)=O)C1 (relative stereo) [Example 5] | 73 |
| CON(C)C(=O)[C@@]1(Cc2cccc(-c3ncc(F)cn3)c2)C[C@H](F)[C@H](NS(C)(=O)=O)C1 [Example 57, (1R,3S,4R)-3-Fluoro-1-(3-(5-fluoropyrimidin-2-yl)benzyl)-N-methoxy-N-methyl-4-(methylsulfonamido)cyclopentane-1-carboxamide] | 92 |
| COc1ccc(C[C@]2(C(=O)N(C)OC)CC[C@H](NS(C)(=O)=O)C2)cc1-c1ncc(F)cn1 [Example 56, (1R,3S)-1-(3-(5-Fluoropyrimidin-2-yl)-4-methoxybenzyl)-N-methoxy-N-methyl-3-(methylsulfonamido)cyclopentane-1-carboxamide] | 51 |
| CON(C)C(=O)[C@@]1(Cc2ccc(C)c(-c3ncc(F)cn3)c2)CC[C@H](NS(C)(=O)=O)C1 (relative stereo) [Example 22] | 87 |
| CS(=O)(=O)N[C@H]1CC[C@](Cc2cccc(-c3ccccc3)c2)(C(=O)NCCO)C1 (relative stereo) [Example 73, (1R*,3S*)-1-([1,1′-Biphenyl]-3-ylmethyl)-N-(2-hydroxyethyl)-3-(methylsulfonamido)cyclopentane-1-carboxamide] | 36 |
| CON(C)C(=O)[C@@]1(Cc2cccc(-c3nc(C)co3)c2)CC[C@H](NS(C)(=O)=O)C1 (relative stereo) [Example 13] | 90 |
| CON(C)C(=O)[C@@]1(Cc2ccc(F)c(-c3ncc(F)cn3)c2)CC[C@H](NS(C)(=O)=O)C1 [Example 48, (1R,3S)-1-(4-Fluoro-3-(5-fluoropyrimidin-2-yl)benzyl)-N-methoxy-N-methyl-3-(methylsulfonamido)cyclopentane-1-carboxamide] | 101 |
| CON(C)C(=O)[C@@]1(Cc2ccc(F)c(-c3ncc(Cl)cn3)c2)CC[C@H](NS(C)(=O)=O)C1 (relative stereo) [Example 23] | 83 |
| CON(C)C(=O)[C@@]1(Cc2cccc(-c3ncc(N(C)C)cn3)c2)CC[C@H](NS(C)(=O)=O)C1 (relative stereo) [Example 21, (1R*,3S*)-1-(3-(5-(Dimethylamino)pyrimidin-2-yl)benzyl)-N-methoxy-N-methyl-3-(methylsulfonamido)cyclopentane-1-carboxamide] | 48 |
| CON(C)C(=O)[C@@]1(Cc2cccc(-c3ncc(F)cn3)c2)C[C@H](F)[C@H](NS(=O)(=O)C(C)C)C1 [Example 58, (1R,3S,4R)-3-Fluoro-1-(3-(5-fluoropyrimidin-2-yl)benzyl)-N-methoxy-N-methyl-4-((1-methylethyl)sulfonamido)cyclopentane-1-carboxamide] | 95 |
| CON(C)C(=O)[C@]1(Cc2cccc(-c3ncccn3)c2)C[C@@H](NS(C)(=O)=O)C(F)(F)C1 [Example 65, (1R,4R)-3,3-Difluoro-N-methoxy-N-methyl-4-(methylsulfonamido)-1-(3-(pyrimidin-2-yl)benzyl)cyclopentane-1-carboxamide] | 86 |
| CON(C)C(=O)[C@@]1(Cc2cccc(-c3ccccc3C#N)c2)CC[C@H](NS(C)(=O)=O)C1 (relative stereo) [Example 10, (1R*,3S*)-1-((2′-Cyano-[1,1′-biphenyl]-3-yl)methyl)-N-methoxy-N-methyl-3-(methylsulfonamido)cyclopentane-1-carboxamide] | 41 |
| CON(C)C(=O)[C@]1(Cc2cccc(-c3ncccn3)c2)C[C@@H](NS(C)(=O)=O)C(F)(F)C1 (relative stereo) [Example 40, (1R*,4R*)-3,3-Difluoro-N-methoxy-N-methyl-4-(methylsulfonamido)-1-(3-(pyrimidin-2-yl)benzyl)cyclopentane-1-carboxamide] | 88 |
| CCNC(=O)[C@@]1(Cc2cccc(-c3ccccc3)c2)CC[C@H](NS(C)(=O)=O)C1 (relative stereo) [Example 1, (1R*,3S*)-1-([1,1′-Biphenyl]-3-ylmethyl)-N-ethyl-3-(methylsulfonamido)cyclopentane-1-carboxamide] | 50 |
| CON(C)C(=O)[C@@]1(Cc2ccc(F)c(-c3ncc(F)cn3)c2)CC[C@H](NS(=O)(=O)C(F)F)C1 [Example 51, (1R,3S)-3-((Difluoromethyl)sulfonamido)-1-(4-fluoro-3-(5-fluoropyrimidin-2-yl)benzyl)-N-methoxy-N-methylcyclopentane-1-carboxamide] | 98 |
| CON(C)C(=O)[C@@]1(Cc2ccc(C(F)(F)F)c(-c3ncc(F)cn3)c2)CC[C@H](NS(C)(=O)=O)C1 (relative stereo) [Example 25] | 63 |
| COc1cnc(-c2cccc(C[C@]3(C(=O)N(C)OC)CC[C@H](NS(C)(=O)=O)C3)c2)nc1 (relative stereo) [Example 20] | 75 |

— patent US20260124201A1, “CYCLOPENTANE COMPOUND” (Kissei Pharmaceutical Co., Ltd., priority 2022, published 2026)
